In patent US8507484B2, “Preventive and/or therapeutic agent for neutrophilic inflammatory diseases” (Kyowa Hakko Kirin Co., Ltd., priority 2004, dated 2013):
Where a name gives a salt, the structure may show the parent alone. Each block holds one compound with its values, some of them ahead of it.

How the values were obtained:
[1] = molecular target: T1, human GPR4 (Homo sapiens, UniProt P46093); experiment: GPR4 antagonism, luciferase reporter assay in human GPR4 assay cells; type: cell-based; details: 1 μmol/L test compound, 10 nmol/L 17β-estradiol, 6 hours, firefly luciferase reporter; for inhibition at 1 µM: read-out: Inhibition rate (%)
T1 construct: expressed in transfected cells; expression induced by 17β-estradiol
Method: Assay cells for human GPR4 were constructed according to the method descried in WO03/087366. By using the assay cells, the constitutive activity of human GPR4 can be detected by activity of a reporter (firefly luciferase).
Plasmid pAGal9-GPR4 for inducible expression of human GPR4 (2 μg: WO03/087366) and reporter plasmid pACREpluc (2 μg; WO03/087366) were co-transferred into 6×10^6 cells of KJMGER8 (WO03/087366) by electroporation. The resultant transformant was suspended in 8 mL of a RPMI1640-ITPSG medium [RPMI medium (Nissui Pharmaceutical Co., Ltd.) containing 6 mmol/L of L-glutamine (Invitrogen Corp.), 100 units/ml of penicillin (Invitrogen Corp.), 100 μg/ml of streptomycin (Invitrogen Corp.), 10 mmol/L of N-2-hydroxyethylpiperazine-N′-2-ethanesulfonic acid (HEPES) (Nacalai Tesque Inc.), 3 μg/ml of insulin (Sigma Co. Ltd.), 5 μg/ml of transferrin (Sigma Co. Ltd.), 5 mmol/L of sodium pyruvate (Wako Pure Chemical Industries, Ltd.), 125 nmol/L of selenious acid (Nacalai Tesque Inc.), and 1 mg/ml of galactose (Nacalai Tesque Inc.)], followed by culture in a CO^2 incubator at 37° C. for 24 hours. After the culture, blasticidin S (Funakoshi Co., Ltd., 2.0 μg/ml), hygromycin B (Wako Pure Chemical Industries, Ltd., 300 μg/ml), and geneticin (Nacalai Tesque Inc., 500 μg/ml) were added to the culture solution, followed by further culture for 14 days to prepare a stable transformant (referred to as “GPR4 assay cells”). The transformant was subcultured in a RPMI1640-ITPSG medium containing blastocidin S (Funakoshi Co., Ltd., 2.0 μg/ml), hygromycin B (manufactured by Wako Pure Chemical Industries, Ltd., 300 μg/ml), and geneticin (Nacalai Tesque Inc., 500 μg/ml).
Similarly, control plasmid pAGal9-nd (2 μg; WO03/087366) and reporter plasmid pACREpluc (2 μg; WO03/087366) were co-transferred in KJMGER8 to prepare a stable transformant (referred to as “control cells”).
The resulting human GPR4 assay cells (expressing GPR4 by stimuli of 17β-estradiol) were seeded onto a white plate at a concentration of 10^5 cells per well. Then, 17β-estradiol (Sigma Co. Ltd.), which was diluted with a medium so that the concentration in the reaction solution was 10 nmol/L, and 1 μmol/L of test compound were added to each well, followed by reaction in a 5% CO2 incubator at 37° C. for 6 hours. Then, a Steady Glo Luciferase Assay System (Promega Co., Ltd.) solution was added to terminate the reaction, and the quantity of light emitted per second was measured by a TOP count (Packard, Meriden, Conn., USA).
The activity (GPR4 antagonism) of the test compound was shown by an inhibition rate calculated on the basis of counts (counts per second) in the presence or absence of 17β-estradiol according to the following equation:
[formula] wherein A, B, and C represent the following values: […]
A: counts when 17β-estradiol and test compound were added
B: counts when neither 17β-estradiol nor test compound was added
C: counts when only 17β-estradiol was added

[2] = system: LPC-induced neutrophil infiltration into airway; experiment: Inhibitory activity on LPC-induced neutrophil infiltration into airway (Test Example 2); type: in vivo; details: 100 mg/kg orally 1 hour before intratracheal LPC; BALF 6 hours after LPC; male BALB/c mice
Method: male BALB/c mice of 7-week old were intratracheally administered with 0.1 ml of a 1 mg/mL LPC solution prepared by dissolving in a 0.1% aqueous bovine serum albumin solution or a 0.1% aqueous bovine serum albumin solution (negative control group). Six hours after, bronchoalveola lavage was conducted, and the neutrophil infiltration in the recovered BALF was measured. In addition, Compound 53 or Compound 81 was suspended in a 0.5% aqueous methyl cellulose solution (solvent), and 100 mg/kg of the resultant suspension was orally administered to the mice 1 hour before LPC administration. In a […] control group, the solvent was administered instead of the test compound suspension. The infiltration of neutrophils was measured by measuring the number of cells in the recovered BALF with an automatic blood counter (Celltac α MEK-6158, Nihon Kohden Corporation, Tokyo) and then counting the number of neutrophils under a microscope using a smear prepared with Cytospin 3 (Shandon, Inc., Pittsburgh, Pa., USA). The number of neutrophils was calculated by multiplying the total number of cells by the percentage of the neutrophils. In this test, six mice per group were used for Compound 53, and six or seven mice per group were used for Compound 81.

[3] = system: LPC-induced neutrophil infiltration into airway; experiment: Inhibitory activity on LPC-induced neutrophil infiltration into airway (Test Example 3); type: in vivo; details: 10 mg/kg orally 1 hour before intratracheal LPC; BALF 6 hours after LPC; male BALB/c mice
Method: Male BALB/c mice of 7-week old were intratracheally administered with 0.1 mL of a 1 mg/mL LPC solution prepared by dissolving in a 0.1% aqueous bovine serum albumin solution or a 0.1% aqueous bovine serum albumin solution (negative control group). Six hours after, bronchoalveola lavage was conducted, and the neutrophil infiltration in the recovered BALF was measured. In addition, Compound 118 or Compound 160 was suspended in a 0.5% aqueous methyl cellulose solution (solvent), and 10 mg/kg of the resultant suspension was orally administered to the mice 1 hour before LPC administration. In a […] control group, the solvent was administered instead of the test compound suspension. The infiltration of neutrophils was measured by measuring the number of cells in the recovered BALF with an automatic blood counter (Celltac α MEK-6158, Nihon Kohden Corporation, Tokyo) and then counting the number of neutrophils under a microscope using a smear prepared with Cytospin 3 (Shandon, Inc., Pittsburgh, Pa., USA). The number of neutrophils was calculated by multiplying the total number of cells by the percentage of the neutrophils. In this test, five mice per group were used for Compound 118, and six mice per group were used for Compound 160.

T1 sequence (P46093 whole entry): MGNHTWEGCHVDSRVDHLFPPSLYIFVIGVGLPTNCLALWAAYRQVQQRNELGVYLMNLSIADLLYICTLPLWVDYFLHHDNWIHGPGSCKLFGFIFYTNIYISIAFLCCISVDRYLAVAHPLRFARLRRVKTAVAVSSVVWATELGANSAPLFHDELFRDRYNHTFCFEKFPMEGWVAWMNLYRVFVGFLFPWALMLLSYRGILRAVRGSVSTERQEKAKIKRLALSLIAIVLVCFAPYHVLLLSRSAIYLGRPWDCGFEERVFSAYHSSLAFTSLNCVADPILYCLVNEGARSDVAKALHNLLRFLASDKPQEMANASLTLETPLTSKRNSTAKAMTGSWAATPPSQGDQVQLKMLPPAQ

SMILES: CCc1nc2c(C)cc(C)nc2n1Cc1cnc(Nc2ccccc2)nc1 (as salt: hydrochloride)
- melting point: 146 to 150 °C

SMILES: CCc1nc2c(C)cc(C)nc2n1Cc1ccc(C(=O)c2ccccc2)cc1 [Compound 1, 4-(2-Ethyl-5,7-dimethylimidazo[4,5-b]pyridin-3-ylmethyl)benzophenone]
- melting point: 98 °C
- inhibition at 1 µM [1]: 31%

SMILES: CCc1nc2c(C)cc(C)nc2n1Cc1ccc(NC(=O)c2cccc3ccccc23)cc1 [Compound 53]
- Inhibition rate (%) [1]: 74%
- suppression of increase in the number of neutrophils in BALF as compared with the positive control group [2]: 47%

SMILES: CCc1nc2c(C)cc(C)nc2n1Cc1cccc(Nc2ccccc2)c1 [Compound 98]
- Inhibition rate (%) [1]: 37%

SMILES: Cc1cc(C)c2nc(C)n(Cc3ccc(NCC4CCN(C5CCN(C)CC5)CC4)cc3)c2n1 [Compound 160, 4-[4-(2,5,7-Trimethyl-3H-imidazo[4,5-b]pyridin-3-ylmethyl)phenylamino]methyl-1-(1-methylpiperidin-4-yl)piperidine]
- suppression of increase in the number of neutrophils in BALF as compared with the positive control group [3]: 74%

The next lines start with results.

- melting point: 231 to 236 °C
- inhibition at 1 µM [1]: 34%
SMILES: CCc1nc2c(C)cc(C)nc2n1Cc1cccc(C(=NO)c2cccc(CN3CCCC3)c2)c1 [Compound 24, 1-(3-{[3-(2-Ethyl-5,7-dimethylimidazo[4,5-b]pyridin-3-ylmethyl)phenyl]hydroxyiminomethyl}benzyl)pyrrolidine]

- Inhibition rate (%) [1]: 77%
SMILES: CCc1nc2c(C)cc(C)nc2n1Cc1ccc(NC(=O)OC(C)(C)C)cc1 [Compound 81]
- suppression of increase in the number of neutrophils in BALF as compared with the positive control group [2]: 42%

- inhibition at 1 µM [1]: 45%
SMILES: CCc1nc2c(C)cc(C)nc2n1Cc1ccc(Nc2ccccc2)cc1 [Compound 97, {4-(2-Ethyl-5,7-dimethylimidazo[4,5-b]pyridin-3-ylmethyl)phenyl}phenylamine]

- inhibition at 1 µM [1]: 97%
SMILES: CCc1nc2c(C)cc(C)nc2n1Cc1ccc(N[C@H]2CC[C@H](C(=O)NCCN3CCCC3)CC2)cc1 [Compound 118, trans-4-[4-(2-Ethyl-5,7-dimethyl-3H-imidazo[4,5-b]pyridin-3-ylmethyl)phenylamino]cyclohexanecarboxylic acid [2-(pyrrolidin-1-yl)ethyl]amide]
- suppression of increase in the number of neutrophils in BALF as compared with the positive control group [3]: 60%

- inhibition at 1 µM [1]: 97%
SMILES: CCc1nc2c(C)cc(C)nc2n1Cc1ccc(NCC2CCNCC2)cc1 [Compound 143, 4-[4-(2-Ethyl-5,7-dimethyl-3H-imidazo[4,5-b]pyridin-3-ylmethyl)phenylamino]methylpiperidine]

- inhibition at 1 µM [1]: 83%
SMILES: Cc1cc(C)c2nc(C)n(Cc3ccc(NCC4CCN(C5CCOCC5)CC4)cc3)c2n1 [Compound 158, 4-[4-(2,5,7-Trimethyl-3H-imidazo[4,5-b]pyridin-3-ylmethyl)phenylamino]methyl-1-(4-tetrahydropyranyl)piperidine]
